The target of experiment [1] is T1, Tyrosinase (Agaricus bisporus, UniProt O42713).
T1 sequence (O42713 whole entry): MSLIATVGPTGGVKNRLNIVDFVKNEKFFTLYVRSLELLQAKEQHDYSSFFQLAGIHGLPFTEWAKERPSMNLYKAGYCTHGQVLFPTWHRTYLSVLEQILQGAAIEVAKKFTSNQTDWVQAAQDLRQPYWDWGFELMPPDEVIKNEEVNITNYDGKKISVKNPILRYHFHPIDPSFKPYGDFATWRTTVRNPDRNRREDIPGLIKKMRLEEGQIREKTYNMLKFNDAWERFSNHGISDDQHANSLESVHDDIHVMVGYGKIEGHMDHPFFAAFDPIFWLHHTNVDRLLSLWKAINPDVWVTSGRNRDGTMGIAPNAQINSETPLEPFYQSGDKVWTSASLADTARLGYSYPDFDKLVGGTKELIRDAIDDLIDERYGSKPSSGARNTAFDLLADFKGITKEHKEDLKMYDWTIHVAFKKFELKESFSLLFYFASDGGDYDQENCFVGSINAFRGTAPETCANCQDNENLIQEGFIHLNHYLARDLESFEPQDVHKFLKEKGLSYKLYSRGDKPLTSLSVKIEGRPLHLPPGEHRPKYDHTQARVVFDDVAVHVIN
The experiment can be described thus: Inhibition of mushroom tyrosinase.

For experiment [2], the target named is T2, Tyrosinase (Agaricus bisporus) (UniProt O42713).
T2 sequence (whole entry): T1 sequence (O42713 whole entry)
Nature of the experiment: Reversible inhibition of mushroom tyrosinase assessed as L-DOPA oxidation at 1.2 to 2.4 uM.

The target in experiment [3] is T2, Tyrosinase (Agaricus bisporus). Nature of the experiment: Competitive-uncompetitive mixed-2 type inhibition of mushroom tyrosinase assessed as L-DOPA oxidation at 0.05 to 0.10 uM by Lineweaver-Burke double reciprocal plot.
For experiment [4] the target is unchanged. Nature of the experiment: Inhibition of mushroom tyrosinase at 200 uM.
Experiment [5] has the same target. The settings on record: 1.06 to 0.12 uM.
Description: Competitive inhibition of mushroom tyrosinase assessed as L-DOPA oxidation at 1.06 to 0.12 uM by Lineweaver-Burke double reciprocal plot

As usually defined, the IC50 is the point on the concentration scale where inhibition reaches its midpoint.

Active and inactive are the calls of the source. The rule behind the calls is not given here.

`CC(=O)OC[C@H]1O[C@@H](O[C@H]2[C@H](OC(C)=O)[C@@H](OC(C)=O)[C@H](Oc3ccc(/C=N\NC(N)=S)cc3)O[C@@H]2COC(C)=O)[C@H](OC(C)=O)[C@@H](OC(C)=O)[C@H]1OC(C)=O` showed an IC50 in experiment [1] of 0.65 µM. The inhibition entry in experiment [2] and in experiment [3] was “Active” throughout.

The compound `CO/N=C\c1ccc(O[C@@H]2O[C@H](COC(C)=O)[C@@H](OC(C)=O)[C@@H](OC(C)=O)[C@H]2OC(C)=O)cc1` came in with an IC50 in experiment [1] of over 200 µM. Further, the inhibition result in experiment [4] is “inactive”.

Regarding `O=C(O[C@@H]1[C@@H](OC(=O)c2ccccc2)[C@H](Oc2ccc(/C=N\O)cc2)OC[C@H]1OC(=O)c1ccccc1)c1ccccc1`, the IC50 in experiment [1] was over 200 µM. For the same compound, the inhibition entry in experiment [4] is “inactive”.

`CO/N=C\c1ccc(O[C@@H]2O[C@H](CO)[C@@H](O)[C@H](O)[C@H]2O)cc1` had an IC50 in experiment [1] of over 200 µM. The inhibition result in experiment [4] is “inactive”.

`OC[C@H]1O[C@@H](Oc2ccc(/C=N\O)cc2)[C@H](O)[C@H](O)[C@@H]1O` came in with an IC50 in experiment [1] of over 200 µM. Also, the inhibition result in experiment [4] is “inactive”.

`CCO/N=C\c1ccc(O)c(O)c1` displayed an IC50 in experiment [1] of 0.3 µM.

For the compound `CC(=O)OC[C@H]1O[C@@H](Oc2ccc(/C=N\NC(N)=S)cc2)[C@H](OC(C)=O)[C@H](OC(C)=O)[C@@H]1OC(C)=O`, the IC50 in experiment [1] turned out to be 3.41 µM.

Turning to `CO/N=C\c1ccc(O[C@@H]2O[C@H](COC(C)=O)[C@H](OC(C)=O)[C@H](OC(C)=O)[C@H]2OC(C)=O)cc1`, the IC50 in experiment [1] was over 200 µM. Further, the inhibition entry in experiment [4] is “inactive”.

Compound `CC(=O)OC[C@H]1O[C@@H](Oc2ccc(/C=N\O)cc2)[C@H](OC(C)=O)[C@H](OC(C)=O)[C@@H]1OC(C)=O` registered an IC50 in experiment [1] of over 200 µM. Besides, the inhibition entry in experiment [4] is “inactive”.

In the case of `CC(=O)OC[C@H]1O[C@@H](Oc2ccc(C=O)cc2)[C@H](OC(C)=O)[C@@H](OC(C)=O)[C@@H]1OC(C)=O`, the inhibition result in experiment [4] is “inactive”.

Consider `O=Cc1ccc(O[C@@H]2O[C@H](COC(=O)c3ccccc3)[C@@H](OC(=O)c3ccccc3)[C@@H](OC(=O)c3ccccc3)[C@H]2OC(=O)c2ccccc2)cc1`, for which the inhibition result in experiment [4] was “inactive”.

`OC[C@H]1O[C@@H](Oc2ccc(/C=N\O)cc2)[C@H](O)[C@@H](O)[C@@H]1O`: in experiment [1], the IC50 is over 200 µM. In experiment [4], the inhibition result was “inactive”.

With `CO/N=C\c1ccc(O[C@@H]2O[C@H](COC(C)=O)[C@@H](OC(C)=O)[C@H](OC(C)=O)[C@H]2OC(C)=O)cc1`, in experiment [1], the IC50 is over 200 µM. Also, in experiment [4], the inhibition entry is “inactive”.

In experiment [1], `CO/N=C\c1ccc(O[C@@H]2OC[C@@H](OC(=O)c3ccccc3)[C@H](OC(=O)c3ccccc3)[C@H]2OC(=O)c2ccccc2)cc1` yielded a half-maximal inhibitory concentration (IC50) of over 200 µM. Also, in experiment [4], the inhibition result was “inactive”.

`NC(=S)N/N=C\c1ccc(O[C@@H]2O[C@H](CO)[C@@H](O)[C@@H](O)[C@H]2O)cc1` registered an IC50 in experiment [1] of 3.61 µM.

Take `CC(=O)OC[C@H]1O[C@@H](Oc2ccc(C=O)cc2)[C@H](OC(C)=O)[C@@H](OC(C)=O)[C@H]1OC(C)=O`: in experiment [4], the inhibition result is “inactive”.

As for `CC(=O)OC[C@H]1O[C@@H](Oc2ccc(/C=N\O)cc2)[C@H](OC(C)=O)[C@@H](OC(C)=O)[C@@H]1OC(C)=O`, the IC50 in experiment [1] is over 200 µM. Further, the inhibition entry in experiment [4] is “inactive”.

Take `O=Cc1ccc(O[C@@H]2O[C@H](CO)[C@@H](O)[C@@H](O)[C@H]2O)cc1`: in experiment [4], the inhibition entry is “inactive”.

In experiment [1], `CC(=O)OC[C@H]1O[C@@H](Oc2ccc(/C=N\NC(N)=S)cc2)[C@H](OC(C)=O)[C@@H](OC(C)=O)[C@H]1OC(C)=O` had an IC50 of 0.41 µM.

In the case of `O=Cc1ccc(O[C@@H]2O[C@H](CO)[C@@H](O)[C@H](O)[C@H]2O)cc1`, the inhibition result in experiment [4] is “inactive”.

For the compound `CC(=O)OC[C@H]1O[C@@H](Oc2ccc(C=O)cc2)[C@H](OC(C)=O)[C@H](OC(C)=O)[C@@H]1OC(C)=O`, the inhibition result in experiment [4] was “inactive”.

In the case of `NC(=S)N/N=C\c1ccc(O[C@@H]2O[C@H](CO)[C@@H](O)[C@H](O)[C@H]2O)cc1`, in experiment [1], the IC50 came out at 2.96 µM.

In experiment [1], `CC(=O)OC[C@H]1O[C@@H](Oc2ccc(/C=N\O)cc2)[C@H](OC(C)=O)[C@@H](OC(C)=O)[C@H]1OC(C)=O` had an IC50 of over 200 µM. Moreover, the inhibition result in experiment [4] was “inactive”.

In the case of `NC(=S)N/N=C\c1ccc(O[C@@H]2O[C@H](COC(=O)c3ccccc3)[C@@H](OC(=O)c3ccccc3)[C@@H](OC(=O)c3ccccc3)[C@H]2OC(=O)c2ccccc2)cc1`, in experiment [1], the IC50 worked out at 52.8 µM.

`O=Cc1ccc(O[C@@H]2OC[C@@H](OC(=O)c3ccccc3)[C@H](OC(=O)c3ccccc3)[C@H]2OC(=O)c2ccccc2)cc1`: the inhibition entry in experiment [4] is “inactive”.

In experiment [1], `CO/N=C\c1ccc(O[C@@H]2O[C@H](CO)[C@@H](O)[C@@H](O)[C@H]2O)cc1` had a half-maximal inhibitory concentration (IC50) of over 200 µM. Moreover, the inhibition entry in experiment [4] is “inactive”.

The compound `O=C(OC[C@H]1O[C@@H](Oc2ccc(/C=N\O)cc2)[C@H](OC(=O)c2ccccc2)[C@H](OC(=O)c2ccccc2)[C@@H]1OC(=O)c1ccccc1)c1ccccc1` registered an IC50 in experiment [1] of over 200 µM. In addition, the inhibition entry in experiment [4] was “inactive”.

Compound `NC(=S)N/N=C\c1ccc(O[C@@H]2OC[C@@H](OC(=O)c3ccccc3)[C@H](OC(=O)c3ccccc3)[C@H]2OC(=O)c2ccccc2)cc1` came in with an IC50 in experiment [1] of 36.5 µM.

For `CO/N=C\c1ccc(O[C@@H]2O[C@H](COC(=O)c3ccccc3)[C@@H](OC(=O)c3ccccc3)[C@@H](OC(=O)c3ccccc3)[C@H]2OC(=O)c2ccccc2)cc1`, the IC50 in experiment [1] was over 200 µM. Further, the inhibition result in experiment [4] is “inactive”.

`CO/N=C\c1ccc(O[C@@H]2O[C@H](COC(C)=O)[C@@H](O[C@@H]3O[C@H](COC(C)=O)[C@H](OC(C)=O)[C@H](OC(C)=O)[C@H]3OC(C)=O)[C@H](OC(C)=O)[C@H]2OC(C)=O)cc1` had an IC50 in experiment [1] of over 200 µM. In addition, the inhibition entry in experiment [4] is “inactive”.

Take `CC(=O)OC[C@H]1O[C@@H](O[C@H]2[C@H](OC(C)=O)[C@@H](OC(C)=O)[C@H](Oc3ccc(/C=N\O)cc3)O[C@@H]2COC(C)=O)[C@H](OC(C)=O)[C@@H](OC(C)=O)[C@H]1OC(C)=O`: the IC50 in experiment [1] was over 200 µM. Further, the inhibition result in experiment [4] was “inactive”.

With `CC(=O)OC[C@H]1O[C@@H](Oc2ccc(/C=N\NC(N)=S)cc2)[C@H](OC(C)=O)[C@@H](OC(C)=O)[C@@H]1OC(C)=O`, in experiment [1], the IC50 came out at 0.31 µM. Besides, the inhibition entry in experiment [2] and in experiment [5] was “Active” in each case.

For the origin of these results see ChEMBL document CHEMBL1156081, “Discovery of 4-functionalized phenyl-O-beta-D-glycosides as a new class of mushroom tyrosinase inhibitors” (Bioorg Med Chem Lett, 2009).
